Data: patent publication US9303012B2, “Pyridine-2-amides useful as CB2 agonists” (Hoffmann-La Roche Inc., priority 2012, dated 2016)

How the values were obtained:
human CB1 receptors = human CB1 receptors (Homo sapiens (Human), UniProt P21554); assay: functional cAMP assay, CHO cells expressing human CB1 receptors; format: cell-based
Procedure, shortened: (§1)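 CHO cells with human CB1 or CB2 were switched to Krebs Ringer bicarbonate buffer with 1 mM IBMX for 30 min at 30 °C, then given compound for 30 min at 30 °C. cAMP was measured by time-resolved FRET against a cAMP standard curve, and EC50 values were calculated.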

human CB2 receptors = human CB2 receptors (Homo sapiens (Human), UniProt P34972); assay: functional cAMP assay, CHO cells expressing human CB2 receptors; format: cell-based
Procedure, shortened: as §1

human CB1 receptors, sequence (P21554 whole entry): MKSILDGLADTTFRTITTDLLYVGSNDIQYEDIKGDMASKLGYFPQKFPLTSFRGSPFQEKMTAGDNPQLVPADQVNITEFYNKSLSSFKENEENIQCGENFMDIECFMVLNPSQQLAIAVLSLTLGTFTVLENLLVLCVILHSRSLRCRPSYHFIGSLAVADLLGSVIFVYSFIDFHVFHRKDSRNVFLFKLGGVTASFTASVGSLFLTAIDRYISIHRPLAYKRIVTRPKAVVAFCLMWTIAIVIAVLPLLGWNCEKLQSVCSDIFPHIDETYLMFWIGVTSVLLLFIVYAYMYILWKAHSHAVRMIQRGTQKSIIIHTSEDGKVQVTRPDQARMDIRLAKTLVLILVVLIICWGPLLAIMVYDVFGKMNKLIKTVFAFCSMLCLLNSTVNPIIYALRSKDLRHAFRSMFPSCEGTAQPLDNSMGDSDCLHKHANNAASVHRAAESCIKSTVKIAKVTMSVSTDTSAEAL
human CB2 receptors, sequence (P34972 whole entry): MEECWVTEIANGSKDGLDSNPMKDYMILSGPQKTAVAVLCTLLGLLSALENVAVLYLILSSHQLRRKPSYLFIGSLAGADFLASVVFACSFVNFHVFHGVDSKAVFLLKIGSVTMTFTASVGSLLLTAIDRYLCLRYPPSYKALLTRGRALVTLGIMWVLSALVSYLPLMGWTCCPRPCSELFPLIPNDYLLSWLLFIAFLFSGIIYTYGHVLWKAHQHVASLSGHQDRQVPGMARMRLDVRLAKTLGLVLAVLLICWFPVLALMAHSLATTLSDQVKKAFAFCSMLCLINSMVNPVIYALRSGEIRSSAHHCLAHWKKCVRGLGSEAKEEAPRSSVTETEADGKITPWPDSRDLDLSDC

Row | Structure (SMILES) | EC50 (human CB1 receptors) [nM] | EC50 (human CB2 receptors) [nM]
1 | NC(=O)[C@@H]1CC(F)(F)CN1C(=O)c1ccc(C2CC2)c(OCC2CC2)n1 [Example 68, (S)-1-(5-Cyclopropyl-6-cyclopropylmethoxy-pyridine-2-carbonyl)-4,4-difluoro-pyrrolidine-2-carboxylic acid amide] | > 10000 | 2.7
2 | NC(=O)[C@@H]1CC(F)(F)CN1C(=O)c1ccc(N2CC(F)(F)C2)c(OCCF)n1 [Example 147, (2S)-1-[5-(3,3-Difluoroazetidin-1-yl)-6-(2-fluoroethoxyl)pyridine-2-carbonyl]-4,4-difluoro-pyrrolidine-2-carboxamide] | > 10000 | 1170
3 | O=C(c1ccc(N2CC(F)(F)C2)c(OCC2CC2)n1)N1CCCC12CC2 [Example 57, (4-Aza-spiro[2.4]hept-4-yl)-[6-cyclopropylmethoxy-5-(3,3-difluoro-azetidin-1-yl)-pyridin-2-yl]-methanone] | > 10000 | 1.8
4 | O=C(c1ccc(N2CC(F)(F)C2)c(OCC2CC2)n1)N1C[C@@H]2CC[C@H]1C2 [Example 59, (1S,4R)-2-Aza-bicyclo[2.2.1]hept-2-yl-[6-cyclopropylmethoxy-5-(3,3-difluoro-azetidin-1-yl)-pyridin-2-yl]-methanone] | > 10000 | 14.2
5 | O=C(c1ccc(N2CC(F)(F)C2)c(OCC2CC2)n1)N1CC(F)(CO)C1 [Example 148, [6-(Cyclopropylmethoxy)-5-(3,3-difluoroazetidin-1-yl)-2-pyridyl]-[3-fluoro-3-(hydroxymethyl)azetidin-1-yl]methanone] | > 10000 | 451
6 | NC(=O)[C@@H]1C[C@H](F)CN1C(=O)c1ccc(N2CC(F)(F)C2)c(OCC2CC2)n1 [Example 80, (2S,4S)-1-[6-Cyclopropylmethoxy-5-(3,3-difluoro-azetidin-1-yl)-pyridine-2-carbonyl]-4-fluoro-pyrrolidine-2-carboxylic acid amide] | > 10000 | 342
7 | NC(=O)[C@@H]1C[S@+]([O-])CN1C(=O)c1ccc(C2CC2)c(OCC2CC2)n1 (single isomer, unassigned) [Example 116, (1S,4R)-3-(5-Cyclopropyl-6-cyclopropylmethoxy-pyridine-2-carbonyl)-1-oxo-1λ^4-thiazolidine-4-carboxylic acid amide or (1R,4S)-3-(5-cyclopropyl-6-cyclopropylmethoxy-pyridine-2-carbonyl)-1-oxo-1λ^4-thiazolidine-4-carboxylic acid amide] | > 10000 | 672
8 | NC(=O)[C@@H]1C[C@@H](F)CN1C(=O)c1ccc(N2CC(F)(F)C2)c(OCC2CC2)n1 [Example 126, (2S,4R)-1-[6-(Cyclopropylmethoxy)-5-(3,3-difluoroazetidin-1-yl)pyridine-2-carbonyl]-4-fluoropyrrolidine-2-carboxamide] | > 10000 | 40
9 | CCN(C(=O)c1ccc(N2CC(F)(F)C2)c(OCC2CC2)n1)C1(C(F)(F)F)CC1 [Example 21, 6-Cyclopropylmethoxy-5-(3,3-difluoro-azetidin-1-yl)-pyridine-2-carboxylic acid ethyl-(1-trifluoromethyl-cyclopropyl)-amide] | > 10000 | 2.8
10 | O=C(c1ccc(C2CC2)c(Cc2ccc(F)cc2)n1)N1CCCC12CCNCC2 [Example 113, [5-Cyclopropyl-6-(4-fluoro-benzyl)-pyridin-2-yl]-(1,8-diaza-spiro[4.5]dec-1-yl)-methanone] | > 10000 | 212
11 | O=C(c1ccc(N2CC(F)(F)C2)c(OCC2CC2)n1)N1CC2(COC2)C1 [Example 11, [6-Cyclopropylmethoxy-5-(3,3-difluoro-azetidin-1-yl)-pyridin-2-yl]-(2-oxa-6-aza-spiro[3.3]hept-6-yl)-methanone] | > 10000 | 364
12 | NC(=O)[C@H]1CCCCN1C(=O)c1ccc(C2CC2)c(OCC2CC2)n1 [Example 91, (+)-1-(5-Cyclopropyl-6-cyclopropylmethoxy-pyridine-2-carbonyl)-piperidine-2-carboxylic acid amide] | > 10000 | 893
